Data: the supplement of paper PMC11451515

Tests used:
Details in all cases: 48 h
SEM cells [1] = assay: cell viability relative to DMSO control; higher = less cytotoxic
Outline: (§1)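 NOMO1 or SEM cells were plated at 500 cells/well and P12-Ichikawa cells at 1000 cells/well in 1536-well plates (5 μl), after each leukemia line had been adapted for at least four passages in each medium. Pin dosing delivered library compounds in DMSO at 11 threefold concentrations, 47 μM to 0.79 nM. CellTiter-Glo One luminescence was read after 48 h at 37°C. Viability is reported as a per-plate percentage of DMSO wells, with cell-free wells as background.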

NOMO1 [2] = assay: as above
Outline: as §1

P12-Ichikawa [3] = assay: as above
Outline: as §1

SEM cells [4] = assay: AUC of viability dose-response curve (% viability x log10 dose units); higher = less sensitive
Outline: (§2)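 Leukemia cells adapted to each medium (500 or 1000 cells/well, 1536-well plates) were exposed to library compounds in DMSO for 48 h at 37°C at 11 threefold doses, 47 μM to 0.79 nM. Luminescence by CellTiter-Glo One was normalised per plate to DMSO and cell-free wells, then fitted with a four-parameter log-logistic curve on log10 dose. Curves above full viability were scaled and quality-control failures removed before area under the curve was integrated by trapezoidal rule.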

NOMO1 [5] = assay: as above
Outline: as §2

P12-Ichikawa [6] = assay: as above
Outline: as §2

COc1cc(N2CCN(C)CC2)ccc1Nc1nc(N)c(C(=O)c2c(Cl)cccc2Cl)s1
cell viability [%]
Details	NOMO1 [2]	P12-Ichikawa [3]	SEM cells [1]
HPLM + 10% dialyzed FBS, 0.000781 µM	117	111	109
HPLM + 10% dialyzed FBS, 0.00234 µM	105	118	118
HPLM + 10% dialyzed FBS, 0.00702 µM	119	106	124
HPLM + 10% dialyzed FBS, 0.0211 µM	105	113	111
HPLM + 10% dialyzed FBS, 0.0632 µM	110	111	108
HPLM + 10% dialyzed FBS, 0.19 µM	116	108	116
HPLM + 10% dialyzed FBS, 0.569 µM	126	112	111
HPLM + 10% dialyzed FBS, 1.71 µM	128	103	93.7
HPLM + 10% dialyzed FBS, 5.12 µM	107	105	88.9
HPLM + 10% dialyzed FBS, 15.4 µM	89	96.2	78.4
HPLM + 10% dialyzed FBS, 46.1 µM	82.7	50.2	24.5
RPMI 5 mM glucose + 10% FBS, 0.000781 µM	107	119	118
RPMI 5 mM glucose + 10% FBS, 0.00234 µM	117	117	121
RPMI 5 mM glucose + 10% FBS, 0.00702 µM	103	125	117
RPMI 5 mM glucose + 10% FBS, 0.0211 µM	98.7	110	108
RPMI 5 mM glucose + 10% FBS, 0.0632 µM	103	114	101
RPMI 5 mM glucose + 10% FBS, 0.19 µM	118	111	109
RPMI 5 mM glucose + 10% FBS, 0.569 µM	102	115	105
RPMI 5 mM glucose + 10% FBS, 1.71 µM	105	105	110
RPMI 5 mM glucose + 10% FBS, 5.12 µM	104	101	85.7
RPMI 5 mM glucose + 10% FBS, 15.4 µM	98.6	99.5	68.4
RPMI 5 mM glucose + 10% FBS, 46.1 µM	87.3	50.5	3.88
RPMI 5 mM glucose + 10% dialyzed FBS, 0.000781 µM	108	120	112
RPMI 5 mM glucose + 10% dialyzed FBS, 0.00234 µM	107	120	105
RPMI 5 mM glucose + 10% dialyzed FBS, 0.00702 µM	108	131	122
RPMI 5 mM glucose + 10% dialyzed FBS, 0.0211 µM	116	117	116
RPMI 5 mM glucose + 10% dialyzed FBS, 0.0632 µM	96.6	112	116
RPMI 5 mM glucose + 10% dialyzed FBS, 0.19 µM	114	117	114
RPMI 5 mM glucose + 10% dialyzed FBS, 0.569 µM	103	119	110
RPMI 5 mM glucose + 10% dialyzed FBS, 1.71 µM	109	114	106
RPMI 5 mM glucose + 10% dialyzed FBS, 5.12 µM	102	115	122
RPMI 5 mM glucose + 10% dialyzed FBS, 15.4 µM	105	101	85.7
RPMI 5 mM glucose + 10% dialyzed FBS, 46.1 µM	89.7	54.3	13.3

AUC of viability dose-response curve
Details	NOMO1 [5]	P12-Ichikawa [6]	SEM cells [4]
HPLM + 10% dialyzed FBS	456	457	425
RPMI 5 mM glucose + 10% FBS	467	454	422
RPMI 5 mM glucose + 10% dialyzed FBS	467	456	444

CN(CC(=O)N(Cc1ccc(C2CCCCC2)cc1)c1ccc(C(=O)O)c(O)c1)[S+](=O)([O-])c1c(F)c(F)c(F)c(F)c1F
cell viability [%]
Details	NOMO1 [2]	P12-Ichikawa [3]	SEM cells [1]
HPLM + 10% dialyzed FBS, 0.000781 µM	101	93	83.5
HPLM + 10% dialyzed FBS, 0.00234 µM	109	100	94.7
HPLM + 10% dialyzed FBS, 0.00702 µM	104	94.2	104
HPLM + 10% dialyzed FBS, 0.0211 µM	101	102	95.8
HPLM + 10% dialyzed FBS, 0.0632 µM	117	106	103
HPLM + 10% dialyzed FBS, 0.19 µM	107	107	93.7
HPLM + 10% dialyzed FBS, 0.569 µM	101	107	92.7
HPLM + 10% dialyzed FBS, 1.71 µM	102	101	97.7
HPLM + 10% dialyzed FBS, 5.12 µM	95.1	91.7	84.8
HPLM + 10% dialyzed FBS, 15.4 µM	83.5	75.3	86.5
HPLM + 10% dialyzed FBS, 46.1 µM	31.7	5.29	31.1
RPMI 5 mM glucose + 10% FBS, 0.000781 µM	92.8	93	80.8
RPMI 5 mM glucose + 10% FBS, 0.00234 µM	82.5	100	104
RPMI 5 mM glucose + 10% FBS, 0.00702 µM	88.4	99.5	90
RPMI 5 mM glucose + 10% FBS, 0.0211 µM	84.3	101	93.1
RPMI 5 mM glucose + 10% FBS, 0.0632 µM	88.5	99.7	88.9
RPMI 5 mM glucose + 10% FBS, 0.19 µM	88.6	103	101
RPMI 5 mM glucose + 10% FBS, 0.569 µM	86.9	100	103
RPMI 5 mM glucose + 10% FBS, 1.71 µM	87.7	105	97.8
RPMI 5 mM glucose + 10% FBS, 5.12 µM	83.9	101	77.4
RPMI 5 mM glucose + 10% FBS, 15.4 µM	83.4	92.5	54.8
RPMI 5 mM glucose + 10% FBS, 46.1 µM	63	51.3	6.03
RPMI 5 mM glucose + 10% dialyzed FBS, 0.000781 µM	74.1	87.8	87
RPMI 5 mM glucose + 10% dialyzed FBS, 0.00234 µM	95.2	90.1	91.1
RPMI 5 mM glucose + 10% dialyzed FBS, 0.00702 µM	103	91.4	93.1
RPMI 5 mM glucose + 10% dialyzed FBS, 0.0211 µM	94.1	93.9	89.2
RPMI 5 mM glucose + 10% dialyzed FBS, 0.0632 µM	93.8	96.6	103
RPMI 5 mM glucose + 10% dialyzed FBS, 0.19 µM	110	87.1	101
RPMI 5 mM glucose + 10% dialyzed FBS, 0.569 µM	95.4	94.3	84.5
RPMI 5 mM glucose + 10% dialyzed FBS, 1.71 µM	95.3	96	91.3
RPMI 5 mM glucose + 10% dialyzed FBS, 5.12 µM	95.6	97.9	80.3
RPMI 5 mM glucose + 10% dialyzed FBS, 15.4 µM	86.6	79.6	66.6
RPMI 5 mM glucose + 10% dialyzed FBS, 46.1 µM	51.8	29.6	19.9

AUC of viability dose-response curve
Details	NOMO1 [5]	P12-Ichikawa [6]	SEM cells [4]
HPLM + 10% dialyzed FBS	447	440	432
RPMI 5 mM glucose + 10% FBS	408	462	404
RPMI 5 mM glucose + 10% dialyzed FBS	440	421	405
